# Legend:
# human hepatocytes [1] = assay: Metabolic stability in human hepatocytes (HH CLint); assay type: in vitro ADME; conditions: 37 °C, 2 h
# Procedure: Metabolic stability in human hepatocytes (HH CLint) was measured by incubating the cells with the test compound at 37 °C for 2 h. An aliquot of the mixture was taken at typically nine defined time points, and the metabolic reaction was stopped by adding ACN. The samples were centrifuged, and the supernatant was analyzed via LC-MS/MS. Intrinsic clearance (CLint) was calculated from the disappearance rate of the parent compound. ,
# human hepatocytes [2] = assay: Metabolite identification in human hepatocyte incubations; assay type: in vitro ADME; conditions: 4 μM
# Procedure: (§1) Cryopreserved, pooled primary human, dog, and rat hepatocytes were obtained from BioIVT (previously Celsis IVT). L-15 Leibovitz buffer was placed in a water bath to reach 37 °C. Cryopreserved hepatocytes were transferred from a −150 °C freezer on dry ice and immediately immersed in a preheated water bath kept at 37 °C for thawing. When only a small ice crystal could be seen, the content was emptied into a 50 mL falcon tube filled with warm buffer (maximum four vials/falcon tube). The suspension was centrifuged at room temperature for 3 min at 50 g. The supernatant was removed, the pellet was resuspended in a small volume of buffer, and the falcon tube was refilled with buffer, followed by another centrifugation to wash away any remaining storage buffer. Thereafter, the supernatant was removed, and the pellet was dissolved in a small volume of buffer and diluted to a concentration of about 3–5 million cells/mL. After counting the cells using a Casy cell counter, the suspension was diluted to 1 million viable cells/mL and kept at room temperature until use. The viability cutoff was 80%.
# (§2) An aliquot of 245 μL of hepatocyte suspension was added to a round-bottomed 96-deep-well plate using a manual multipipette. The deep-well plate was preincubated for 15 min at 37 °C and 13 Hz. Substrate solutions of the assay compounds were prepared by the robot in a 96-well plate as follows: 4 μL of 10 mM DMSO stock solution, followed by the addition of 96 μL of ACN:water (1:1, v:v) and mixing by shaking. 50 μL from each well were transferred to and combined in a new plate, resulting in 100 μL per well and a dilution of 1:1.
# (§3) The reaction was started by the addition of 5 μL of 200 μM substrate solution to the preheated hepatocyte suspension, resulting in a final substrate concentration of 4 μM (0.04% DMSO, <0.5% ACN). The incubation was continued at 37 °C and 13 Hz. At each time point (0, 40, and 120 min), a 50 μL sample was taken out and quenched in 200 μL of cold ACN:methanol (1:1, v:v), and the stopped plates were centrifuged for 20 min (set at 4 °C and 4000 g). The supernatant was diluted by taking 50 μL and mixing it with 100 μL of water. Incubations of the positive controls, albendazole and dextromethorphan, were performed in parallel as described above.
# (§4) Structural characterization of metabolites and metabolite profiling were performed using the Waters Acquity ultraperformance liquid chromatography (UPLC) system fitted to a Waters High-Resolution Mass Spectrometer (MS) (Xevo G2-S, Synapt G2-Si, or a Synapt XS MS). The Waters MS systems, equipped with an electrospray ionization (ESI) source, were operated in positive-ion sensitivity mode over a mass range m/z 50–1200 and in negative-ion sensitivity mode over a mass range m/z of 50–1200.
# (§5) The reversed-phase gradient elution was performed on an Acquity U(H)-PLC BEH C18 column (2.1 × 100 mm, 1.7 μm, Waters) set at 45 °C. The mobile phases consisted of 0.1% FA in water (A) and ACN (B). […] The injection volume was 2 μL. The MS settings were optimized for the respective MS instrument. […] A scan time of 0.1 s was used, and data were acquired in centroid mode. Collision energy was set to “off” for the low-energy function, whereas in the high-energy MSe functions, the collision energies were typically ramped from 15 to 35 V in the trap cell, with constant collision energies of 20 V in their transfer cells. Cone voltage was set to 25 V for both low- and high-energy functions. For dedicated MS/MS, the m/z of the molecular ion was selected in the quadrupole, and the mass range for fragmentation analysis was typically set between 50 and 1200. The collision energies were either the same as those stated above for MSe data generation or optimized for a specific metabolite.
# physchem [3] = conditions: pH 7.4
# Procedure: (§9) LogD was measured using the traditional shake-flask method, with up to ten compounds pooled together. The compounds were dissolved in 10 mM sodium phosphate buffer adjusted to pH 7.4 and an octanol phase (both phases were mixed for 2 h at room temperature). The concentrations in both phases were analyzed by liquid chromatography and quantitative tandem mass spectrometry (LC-MS/MS), and distribution coefficients were determined.
# physchem [4] = conditions: 25 °C, pH 7.4, aqueous buffer, thermodynamic from solid
# Procedure: (§10) Solubility was measured as the thermodynamic solubility using a shake-flask approach. Here, DMSO was evaporated from the compound stock solution as the first step. The “dried” compounds were then placed into 10 mM sodium phosphate buffer, adjusted to pH 7.4, and equilibrated at 25 °C for 24 h. The samples were centrifuged, and the solution was analyzed by LC-MS/MS to determine the amount of compound in solution.
# [5] = Thermodynamic solubility, shake-flask; conditions: 10 mM sodium phosphate buffer, 25 °C, pH 7.4, aqueous buffer, thermodynamic from solid
# Procedure: as §10
# [6] = LogD, shake-flask method (octanol / buffer pH 7.4); conditions: octanol/10 mM sodium phosphate buffer
# Procedure: as §9
# rat hepatocytes = assay: Metabolite identification in rat hepatocyte incubations; assay type: in vitro ADME; conditions: Cmpd 28 incubated for 120 min, 4 μM
# Procedure: as §1, §2
# The reaction was started by the addition of 5 μL of 200 μM substrate solution to the preheated hepatocyte suspension, resulting in a final substrate concentration of 4 μM (0.04% DMSO, <0.5% ACN). The incubation was continued at 37 °C and 13 Hz. At each time point (0, 40, and 120 min), a 50 μL sample was taken out and quenched in 200 μL of cold ACN:methanol (1:1, v:v), and the stopped plates were centrifuged for 20 min (set at 4 °C and 4000 g). […]
# dog hepatocytes = assay: Metabolite identification in dog hepatocyte incubations; assay type: in vitro ADME; conditions: Cmpd 28 incubated for 120 min, 4 μM
# Procedure: as §1, §2, §3, §4, §5
# [7] = MetID on in vivo rat plasma samples; parameters: species or system rat (Han Wistar); conditions: after Cmpd 28; sampled at 4 h
# Procedure: (§6) The workup procedure could vary somewhat depending on the compound and dose, but the general procedure was as follows: Two volumes of ACN/methanol (1:1, v:v) were added to the plasma samples and vortex-mixed to precipitate the proteins. Thereafter, the samples were centrifuged for 10 min (at 10,000 g and 4 °C), and the supernatants were diluted with one volume of water. The urine samples were diluted with one volume of ACN/methanol (1:1, v:v) and centrifuged for 10 min (at 10,000 g and 4 °C), followed by a 1:1 dilution with water.
# as §4
# (§7) The reversed-phase gradient elution was performed on an Acquity U(H)-PLC BEH C18 column (2.1 × 100 mm, 1.7 μm, Waters) set at 45 °C. The mobile phases consisted of 0.1% FA in water (A) and ACN (B). […] The injection volume was 2 μL. The MS settings were optimized for the respective MS instrument. […] A scan time of 0.1 s was used, and data were acquired in centroid mode. Collision energy was set to “off” for the low-energy function, whereas in the high-energy MSe functions, the collision energies were typically ramped from 15 to 35 V in the trap cell, with constant collision energies of 20 V in their transfer cells. Cone voltage was set to 25 V for both low- and high-energy functions. For dedicated MS/MS, the m/z of the molecular ion was selected in the quadrupole, and the mass range for fragmentation analysis was typically set between 50 and 1200. The collision energies were either the same as those stated above for MSe data generation or optimized for a specific metabolite. Tune parameters for all MS analyses consisted of a capillary energy of 0.5 kV, sampling cone energy of 40 V, source temperature of 150 °C, desolvation temperature of 550 °C, cone gas flow of 0 L/h, desolvation gas flow of 1200 L/h, and nebulizer pressure of 6.5 bar.
# (§8) Metabolite identification was conducted by processing the generated data using the MetaboLynx XS browser (Waters), MassMetaSite and the web interface ONIRO (Mass Analytica). […] Accurate masses of metabolites were determined from the protonated molecules in the positive ESI time-of-flight MS (ESI–TOF–MS) mode and from the deprotonated molecules in the negative ESI–TOF–MS mode. […] For those metabolites where no MS/MS data could be acquired, identification was based on the accurate mass of the molecular ion and the fragmentation seen in the MSe spectrum. Relative amounts of detected metabolites were calculated as % of the total MS area by dividing the MS peak area for the metabolite (or parent compound) by the combined MS peak area for the parent compound and all identified metabolites.
# [8] = MetID on in vivo dog samples (plasma, urine); parameters: species or system dog (beagles); conditions: after Cmpd 28; sampled at 3 h and 30 min
# Procedure: as §6, §4, §7, §8
SMILES,HH CLint (human hepatocytes [1]) [μL/min/1E6],Metabolites / metabolic pathways identified (human hepatocytes [2]),logD (physchem [3]),solubility (physchem [4]) [µM],solubility at 24 h [5] [µM],logD at 2 h [6],"% of the total MS area, Rat Hepatocytes (Mixed gender) (rat hepatocytes) [%]","% of the total MS area, Dog Hepatocytes (Mixed gender) (dog hepatocytes) [%]","% of the total MS area, Rat Plasma (Female) [7]","% of the total MS area, Rat Plasma (Male) [7]","% of the total MS area, Dog Plasma (Female) [8] [%]"
"COc1cc(NC(=O)C2CCCCC2C(=O)c2ccc(-c3cc[nH]n3)cc2)ncn1 (stereo not drawn) [Cmpd 17, COc1cc(NC(=O)[C@@H]2CCCC[C@H]2C(=O)c2ccc(-c3cc[nH]n3)cc2)ncn1]",22,"ketone reduction, aliphatic hydroxylations, N-glucuronidation, amide hydrolysis, and combinations thereof",3.9,22,,,,,,,
"Cn1ncc(NC(=O)C2CCCCC2C(=O)c2ccc(-c3cc[nH]n3)cc2)c1C(N)=O (stereo not drawn) [Cmpd 18, Cn1ncc(NC(=O)[C@@H]2CCCC[C@H]2C(=O)c2ccc(-c3cc[nH]n3)cc2)c1C(N)=O]",4,the only metabolite identified was the alcohol formed after the reduction of a ketone,,,564,2,,,,,
"Cn1ncc(NC(=O)C2CCCCC2C(=O)c2ccc(-c3cc[nH]n3)cc2)c1C(F)(F)F (stereo not drawn) [Cmpd 25, Cn1ncc(NC(=O)[C@@H]2CCCC[C@H]2C(=O)c2ccc(-c3cc[nH]n3)cc2)c1C(F)(F)F]",7,amide hydrolysis was not detected,3.6,80,,,,,,,
"Cn1cc(NC(=O)C2CCCCC2C(=O)c2ccc(-c3cc[nH]n3)cc2)c(C(F)F)n1 (stereo not drawn) [Cmpd 27, Cn1cc(NC(=O)[C@@H]2CCCC[C@H]2C(=O)c2ccc(-c3cc[nH]n3)cc2)c(C(F)F)n1]",9,amide hydrolysis was not detected,,,99,3,,,,,
Cc1nn(C)cc1NC(=O)[C@@H]1CCCC[C@H]1C(=O)c1ccc(-c2cc(CO)[nH]n2)cc1 [Cmpd 28 M4],,,,,,,3,2,not seen,not seen,1

# — publication PMC12587390, “Metabolite Identification Data in Drug Discovery, Part 1: Data Generation and Trend Analysis” (Molecular Pharmaceutics, 2025)
